# Experimental data published in ChEMBL document CHEMBL3259558, “Identification of amides derived from 1H-pyrazolo[3,4-b]pyridine-5-carboxylic acid as potent inhibitors of human nicotinamide phosphoribosyltransferase (NAMPT)” (Bioorg Med Chem Lett, 2013).
# Active and inactive are the calls of the source. The calls are words filed in the database; no cut-off is given here.
# Legend:
# [1] = molecular target: Nicotinamide phosphoribosyltransferase (Homo sapiens, UniProt P43490); test: Inhibition of C-terminal His-6-tagged full length human NAMPT expressed in Escherichia coli (DE3) cells after 30 mins by mass spectrometry-based analysis
# [2] = test system: A2780; test: Antiproliferative activity against human A2780 cells assessed as cell viability after 72 hrs by SRB assay; format: functional, cell-based; settings: A2780, 72 h
# [3] = Apparent permeability from apical to basolateral side in MDCK cells at 10 uM by LC-MS/MS analysis; format: ADME, cell-based, Canis lupus familiaris; settings: dog
# [4] = Fraction unbound in mouse plasma at 5 uM by LC-MS/MS analysis; format: ADME, cell-free
# [5] = Aqueous solubility of the compound in PBS at pH 7.2 by LC/CLND analysis; format: physicochemical
# [6] = test system: A2780; test: Antiproliferative activity against human A2780 cells assessed as cell viability after 72 hrs by SRB assay in presence of nitotinamide mononucleotide; format: functional, cell-based
# [7] = Drug uptake in Sprague-Dawley rat retina at 30 mg/kg, po qd for 2 days measured 1 hr after last dose in presence of nicotinic acid; format: ADME, organism-based; set-up: dose 30 mg/kg, route oral; settings: read-out: Drug uptake
# [8] = Drug uptake in Sprague-Dawley rat retina at 30 mg/kg, po qd for 2 days measured 6.5 hrs after last dose in presence of nicotinic acid; format: ADME, organism-based; set-up: dose 30 mg/kg, route oral; settings: read-out: Drug uptake
# [9] = Ratio of drug level in retina to plasma of Sprague-Dawley rat at 30 mg/kg, po qd for 2 days measured 1 hr after last dose in presence of nicotinic acid
# [10] = Ratio of drug level in retina to plasma of Sprague-Dawley rat at 30 mg/kg, po qd for 2 days measured 6.5 hrs after last dose in presence of nicotinic acid
# [11] = molecular target: T1, Nicotinamide phosphoribosyltransferase (Mus musculus, UniProt Q99KQ4); test: Inhibition of mouse NAMPT after 30 mins by mass spectrometry-based analysis
# [12] = molecular target: Nicotinamide phosphoribosyltransferase (Rattus norvegicus, UniProt Q80Z29); test: Inhibition of rat NAMPT after 30 mins by mass spectrometry-based analysis
# [13] = Cellular uptake in mouse KPP cells at 1000 nM; format: ADME, cell-based; settings: 1 µM
# [14] = Cellular uptake in mouse KPP cells at 200 nM; format: ADME, cell-based; settings: 0.2 µM
# [15] = test system: PC-3; test: Cellular uptake in human PC3 cells at 1000 nM; format: ADME, cell-based; settings: pc-3, 1 µM
# [16] = molecular target: T1, Nicotinamide phosphoribosyltransferase; test: Inhibition of NAMPT in mouse cells assessed as reduction in NAD level after 48 hrs by mass spectrometry; format: cell-based
# [17] = test system: PC-3; test: Cellular uptake in human PC3 cells at 200 nM; format: ADME, cell-based; settings: pc-3, 0.2 µM
# [18] = Cytotoxicity against rhesus monkey RF/6A cells assessed as cell viability after 96 hrs by CyQuant staining-based assay; settings: Macaca mulatta
# [19] = Inhibition of C-terminal His-6-tagged dog NAMPT expressed in Escherichia coli (DE3)-RIL cells after 30 mins by mass spectrometry-based analysis; set-up: species or system Canis lupus familiaris
# [20] = Inhibition of C-terminal His-6-tagged cynomolgus monkey NAMPT expressed in Escherichia coli (DE3)-RIL cells after 30 mins by mass spectrometry-based analysis; set-up: species or system Macaca fascicularis
# [21] = Antiproliferative activity against human HT1080 cells assessed as cell viability after 96 hrs by CyQuant staining-based assay; format: functional; settings: HT-1080, 96 h
# [22] = test system: PC-3; test: Antiproliferative activity against human PC3 cells assessed as cell viability after 96 hrs by CyQuant staining-based assay; format: functional; settings: PC-3, 96 h
# [23] = Antiproliferative activity against human MIAPaCa2 cells assessed as cell viability after 96 hrs by CyQuant staining-based assay; format: functional; settings: MIA PaCa-2, 96 h
# [24] = Antiproliferative activity against mouse KPP cells assessed as cell viability after 96 hrs by CyQuant staining-based assay; format: functional
# [25] = Antiproliferative activity against mouse KPR cells assessed as cell viability after 96 hrs by CyQuant staining-based assay; format: functional
# [26] = Antiproliferative activity against mouse B16F10 cells assessed as cell viability after 96 hrs by CyQuant staining-based assay; format: functional; settings: B16-F10, 96 h
# [27] = Antiproliferative activity against dog A72 cells assessed as cell viability after 96 hrs by CyQuant staining-based assay; format: functional; settings: Canis lupus familiaris, A-72, 96 h
# [28] = Antiproliferative activity against dog D17 cells assessed as cell viability after 96 hrs by CyQuant staining-based assay; format: functional; settings: Canis lupus familiaris, D17, 96 h
# [29] = Antiproliferative activity against dog DH82 cells assessed as cell viability after 96 hrs by CyQuant staining-based assay; format: functional; settings: Canis lupus familiaris, DH82, 96 h
# [30] = Cytotoxicity against African green monkey COS7 cells assessed as cell viability after 96 hrs by CyQuant staining-based assay; settings: Chlorocebus aethiops, COS-7, 96 h
# [31] = Dissociation constant, pKa of the compound; format: physicochemical
# [32] = Octanol-PBS buffer distribution coefficient, log D of the compound at pH 7.4 by shake flask method; format: physicochemical
# Chain of Nicotinamide phosphoribosyltransferase (Homo sapiens, UniProt P43490) (P43490 whole entry): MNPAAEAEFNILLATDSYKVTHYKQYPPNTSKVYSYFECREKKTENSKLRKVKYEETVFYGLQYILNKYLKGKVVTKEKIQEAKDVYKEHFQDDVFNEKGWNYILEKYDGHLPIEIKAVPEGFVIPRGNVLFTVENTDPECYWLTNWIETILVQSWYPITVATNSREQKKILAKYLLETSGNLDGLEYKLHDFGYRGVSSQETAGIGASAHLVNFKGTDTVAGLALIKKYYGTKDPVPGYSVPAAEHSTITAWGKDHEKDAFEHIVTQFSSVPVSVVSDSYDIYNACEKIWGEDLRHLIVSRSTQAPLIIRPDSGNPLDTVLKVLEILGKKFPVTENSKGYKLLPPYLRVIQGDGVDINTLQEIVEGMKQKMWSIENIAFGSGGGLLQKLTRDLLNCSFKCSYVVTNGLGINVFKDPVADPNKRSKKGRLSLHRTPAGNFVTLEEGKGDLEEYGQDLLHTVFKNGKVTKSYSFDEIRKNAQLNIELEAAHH
# T1 sequence (Q99KQ4 whole entry): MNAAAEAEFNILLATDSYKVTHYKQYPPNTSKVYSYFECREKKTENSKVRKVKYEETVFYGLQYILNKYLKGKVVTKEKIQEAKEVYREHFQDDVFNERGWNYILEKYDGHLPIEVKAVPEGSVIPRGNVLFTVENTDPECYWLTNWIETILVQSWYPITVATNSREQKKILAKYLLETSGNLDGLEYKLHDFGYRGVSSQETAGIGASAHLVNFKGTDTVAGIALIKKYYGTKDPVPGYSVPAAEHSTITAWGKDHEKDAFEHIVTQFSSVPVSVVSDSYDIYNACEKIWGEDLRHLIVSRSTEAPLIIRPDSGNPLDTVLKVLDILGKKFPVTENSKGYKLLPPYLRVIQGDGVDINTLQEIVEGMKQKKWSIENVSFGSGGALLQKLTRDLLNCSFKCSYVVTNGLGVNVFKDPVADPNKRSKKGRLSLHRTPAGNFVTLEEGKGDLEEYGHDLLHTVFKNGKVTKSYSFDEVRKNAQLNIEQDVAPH
# Chain of Nicotinamide phosphoribosyltransferase (Rattus norvegicus, UniProt Q80Z29) (Q80Z29 whole entry): as the sequence (Q99KQ4 whole entry) above, with T335S, N439T, I484M counted along it
compound,measurement,setting,value
O=C(NCc1ccc(S(=O)(=O)c2cncc(Cl)c2)cc1)c1cnc2[nH]ncc2c1,IC50,[1],11 nM
same,IC50,[2],2.4 nM
same,Papp A→B at 10 µM,[3],2.5 ×10⁻⁶ cm/s
same,fraction unbound at 5 µM,[4],0.074
same,solubility,[5],< 1 µM
same,inhibition,[6],inactive
O=C(NCc1ccc(S(=O)(=O)N2CCC(N3CCCC3)CC2)cc1)c1cnc2[nH]ncc2c1,IC50,[2],35 nM
same,inhibition,[6],inactive
CCn1cc(S(=O)(=O)c2ccc(CNC(=O)c3cnc4[nH]ncc4c3)cc2)cn1,IC50,[1],190 nM
same,IC50,[2],31 nM
same,inhibition,[6],inactive
O=C(NCc1ccc(S(=O)(=O)c2ccccc2)cc1)c1ccc2[nH]ncc2n1,IC50,[1],1300 nM
same,IC50,[2],> 2000 nM
same,inhibition,[6],inactive
O=C(NCc1ccc(S(=O)(=O)N2CCCCC2)cc1)c1ccc2nccn2c1,inhibition,[6],inactive
O=C(NCc1ccc(S(=O)(=O)N2CCC(O)CC2)cc1)c1cnc2[nH]ncc2c1,IC50,[1],410 nM
same,IC50,[2],210 nM
same,inhibition,[6],inactive
O=C(NCc1ccc(S(=O)(=O)c2ccccc2)cc1)c1cc2cn[nH]c2cn1,IC50,[1],> 2000 nM
same,IC50,[2],> 2000 nM
same,inhibition,[6],inactive
COC1CCN(S(=O)(=O)c2ccc(CNC(=O)c3cnc4[nH]ncc4c3)cc2)CC1,IC50,[1],400 nM
same,IC50,[2],39 nM
same,inhibition,[6],inactive
O=C(NCc1ccc(S(=O)(=O)c2cccc(OC(F)(F)F)c2)cc1)c1cnc2[nH]ncc2c1,IC50,[1],7.7 nM
same,IC50,[2],4.8 nM
same,Papp A→B at 10 µM,[3],4 ×10⁻⁶ cm/s
same,fraction unbound at 5 µM,[4],0.008
same,solubility,[5],< 1 µM
same,inhibition,[6],inactive
NC1CCN(S(=O)(=O)c2ccc(CNC(=O)c3cnc4[nH]ncc4c3)cc2)CC1,IC50,[1],390 nM
same,IC50,[2],330 nM
same,inhibition,[6],inactive
O=C(NCc1ccc(S(=O)(=O)N2CCCCC2)cc1)c1cnc2[nH]ncc2c1,IC50,[1],100 nM
same,IC50,[2],88 nM
same,inhibition,[6],inactive
O=C(NCc1ccc(S(=O)(=O)c2ccccc2)cc1)c1cnc2[nH]ncc2c1,IC50,[1],54 nM
same,IC50,[2],66 nM
same,inhibition,[6],inactive
O=C(NCc1ccc(S(=O)(=O)c2cncc(C(F)(F)F)c2)cc1)c1cnc2[nH]ncc2c1,IC50,[1],10 nM
same,IC50,[2],4.5 nM
same,Papp A→B at 10 µM,[3],4.4 ×10⁻⁶ cm/s
same,fraction unbound at 5 µM,[4],0.05
same,solubility,[5],< 1 µM
same,inhibition,[6],inactive
O=C(NCc1ccc(S(=O)(=O)c2ccccc2)cc1)c1ccc2nccn2c1,inhibition,[6],inactive
O=C(NCc1ccc(S(=O)(=O)c2cc(F)cc(F)c2)cc1)c1cnc2[nH]ncc2c1,IC50,[2],6 nM
same,Papp A→B at 10 µM,[3],7.8 ×10⁻⁶ cm/s
same,fraction unbound at 5 µM,[4],0.114
same,solubility,[5],< 1 µM
same,inhibition,[6],inactive
O=C(NCc1ccc(S(=O)(=O)c2ccccc2)cc1)c1cnc2[nH]ccc2c1,IC50,[2],> 2000 nM
same,inhibition,[6],inactive
CC(C)n1cc(S(=O)(=O)c2ccc(CNC(=O)c3cnc4[nH]ncc4c3)cc2)cn1,IC50,[1],99 nM
same,IC50,[2],12 nM
same,inhibition,[6],inactive
O=C(NCc1ccc(S(=O)(=O)N2CCN(C3COC3)CC2)cc1)c1cnc2[nH]ncc2c1,IC50,[1],440 nM
same,IC50,[2],45 nM
same,inhibition,[6],inactive
CCCn1cc(S(=O)(=O)c2ccc(CNC(=O)c3cnc4[nH]ncc4c3)cc2)cn1,IC50,[1],10 nM
same,IC50,[2],6.9 nM
same,Papp A→B at 10 µM,[3],1.9 ×10⁻⁶ cm/s
same,fraction unbound at 5 µM,[4],0.071
same,solubility,[5],8.8 µM
same,inhibition,[6],inactive
O=C(NCc1ccc(S(=O)(=O)N2CCCCC2)cc1)c1ccc2[nH]ncc2c1,IC50,[1],> 2000 nM
same,IC50,[2],> 2000 nM
same,inhibition,[6],inactive
O=C(NCc1ccc(S(=O)(=O)N2CCOCC2)cc1)c1cnc2[nH]ncc2c1,IC50,[1],370 nM
same,IC50,[2],280 nM
same,inhibition,[6],inactive
O=C(NCc1ccc(S(=O)(=O)N2CC3(CCOCC3)C2)cc1)c1cnc2[nH]ncc2c1,IC50,[1],110 nM
same,IC50,[2],45 nM
same,inhibition,[6],inactive
O=C(NCc1ccc(S(=O)(=O)c2cnc3ccccc3c2)cc1)c1cnc2[nH]ncc2c1,IC50,[1],8.2 nM
same,IC50,[2],2.2 nM
same,Papp A→B at 10 µM,[3],1.6 ×10⁻⁶ cm/s
same,fraction unbound at 5 µM,[4],0.009
same,solubility,[5],< 1 µM
same,inhibition,[6],inactive
N#CC1CCN(S(=O)(=O)c2ccc(CNC(=O)c3cnc4[nH]ncc4c3)cc2)CC1,IC50,[1],410 nM
same,IC50,[2],> 2000 nM
same,inhibition,[6],inactive
CN(C)c1ccc(S(=O)(=O)c2ccc(CNC(=O)c3cnc4[nH]ncc4c3)cc2)cn1,IC50,[1],12 nM
same,IC50,[2],3.2 nM
same,Papp A→B at 10 µM,[3],1.5 ×10⁻⁶ cm/s
same,fraction unbound at 5 µM,[4],0.018
same,solubility,[5],< 1 µM
same,inhibition,[6],inactive
O=C(NCc1ccc(S(=O)(=O)c2cc(F)cc(F)c2)cc1)c1ccc2nccn2c1,concentration at 1 h,[7],1900 nM
same,concentration at 6.5 h,[8],1300 nM
same,Kp at 1 h,[9],0.32
same,Kp at 6.5 h,[10],0.3
same,IC50,[11],24 nM
same,IC50,[12],23 nM
same,Drug uptake,[13],31 nM
same,Drug uptake,[14],8 nM
same,Drug uptake,[15],30 nM
same,EC50,[16],1.3 nM
same,Drug uptake,[17],9 nM
same,IC50,[18],4 nM
same,IC50,[19],7 nM
same,IC50,[20],42 nM
same,IC50,[21],2 nM
same,IC50,[22],3 nM
same,IC50,[23],7 nM
same,IC50,[24],16 nM
same,IC50,[25],41 nM
same,IC50,[26],71 nM
same,IC50,[27],4 nM
same,IC50,[28],12 nM
same,IC50,[29],7 nM
same,IC50,[30],9 nM
same,pKa,[31],5.3
same,logD,[32],3.2
Cn1ncc2cc(C(=O)NCc3ccc(S(=O)(=O)c4ccccc4)cc3)cnc21,IC50,[1],1700 nM
same,IC50,[2],> 2000 nM
same,inhibition,[6],inactive
O=C(NCc1ccc(S(=O)(=O)c2ccc(N3CCOCC3)nc2)cc1)c1cnc2[nH]ncc2c1,IC50,[1],4.5 nM
same,IC50,[2],1.3 nM
same,Papp A→B at 10 µM,[3],0.85 ×10⁻⁶ cm/s
same,fraction unbound at 5 µM,[4],0.019
same,solubility,[5],< 1 µM
same,inhibition,[6],inactive
